21 compounds from US9957274B2, “Indane inhibitors of EED and methods of their use” (AbbVie Inc., priority 2016, dated 2018) can be followed below.

Read-outs that look alike come from different tables or passages of the source.

One test has as its target EED (Homo sapiens, UniProt O75530). Put plainly: EED TR-FRET Binding Assay (modified LanthaScreen competition assay). Put shortly:
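Competition binding in a modified LanthaScreen format, in 20 mM Tris-HCl pH 7.5, 200 mM NaCl, 0.01% Tween-20, 10 uM DTT and 0.05% BSA. Reactions ran 1 hour at 25° C before TR-FRET detection.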
A general note: In TR-FRET formats the signal depends on donor and acceptor labels being close together.

The test system of test [1] is H3K27me3 in OCILY19 cells. Put plainly: H3K27me3 AlphaLISA assay in OCILY19 cells. As to conditions: Homo sapiens, OCI-LY19, 144 h, 6 days with compound, read-out: OCILY-19 IC50. In kind it is cell-based. As for the experimental part: 5,000 cells were plated into each well of 96-well Corning CellBing cell culture plates and incubated overnight at 37° C. in a humidified CO2 incubator. […] The cell culture plates were then incubated for 6 more days. H3K27me3 AlphaLISA assay was performed on the cell culture samples by using AlphaLISAR® H3K27me3 Cellular Detection Kit (PerkinElmer) and 96-well white half-area plates (PerkinElmer).
For orientation: In Alpha technology, singlet oxygen from a donor bead excites a nearby acceptor bead.

The next test concerns Pfeiffer cells. The experiment in a line: CTG cell viability assay (CellTiter-Glo). Type of test: cell-based. The note with it: Homo sapiens, 240 h. As for the experimental part:
1,000 cells were plated into each well of 96-well Corning CellBing cell culture plates and incubated overnight at 37° C. in a humidified CO2 incubator. […] The cell culture plates were then incubated for 10 more days. CTG cell viability assay was performed on the cell culture samples by using CellTiter-Glo® Luminescent Cell Viability Assay Kit (Promega).
(In ATP-based viability assays light output follows the ATP content of the culture.)

Where [2] appears, read: Pfeiffer cells, 10 days with compound, CellTiter-Glo, read-out: Cell Proliferation IC50.

Sequence of EED (O75530 whole entry): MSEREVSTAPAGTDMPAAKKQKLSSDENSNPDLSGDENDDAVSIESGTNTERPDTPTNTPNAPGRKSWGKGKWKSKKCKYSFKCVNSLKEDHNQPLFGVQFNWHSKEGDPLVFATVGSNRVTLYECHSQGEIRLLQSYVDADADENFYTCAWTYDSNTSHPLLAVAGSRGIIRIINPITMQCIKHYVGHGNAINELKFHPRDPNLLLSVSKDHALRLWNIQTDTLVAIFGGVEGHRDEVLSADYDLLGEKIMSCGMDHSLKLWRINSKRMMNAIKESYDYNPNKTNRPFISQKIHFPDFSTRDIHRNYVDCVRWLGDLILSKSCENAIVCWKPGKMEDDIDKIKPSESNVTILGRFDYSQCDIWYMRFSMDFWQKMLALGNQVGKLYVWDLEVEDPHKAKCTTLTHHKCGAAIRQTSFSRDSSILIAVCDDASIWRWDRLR

On to `CN(C)[C@H]1CN([C@@H]2C[C@H](F)c3cccc(F)c32)C[C@@H]1c1ccc(S(C)(=O)=O)cc1` (mixture of isomers) [Example 31, rac-(3R,4S)-1-[(1R,3S)-3,7-difluoro-2,3-dihydro-1H-inden-1-yl]-4-[4-(methanesulfonyl)phenyl]-N,N-dimethylpyrrolidin-3-amine], for which the IC50 at EED was 8.19 nM; in test [1] it was 3450 nM; in the test with Pfeiffer cells (setting [2]) it was 0.754 µM.

In the case of `CN(C)[C@H]1CN([C@H]2C[C@H](F)c3cccc(F)c32)C[C@@H]1c1ccc(S(C)(=O)=O)cc1` (mixture of isomers) [Example 32, rac-(3R,4S)-1-[(1S,3S)-3,7-difluoro-2,3-dihydro-1H-inden-1-yl]-4-[4-(methanesulfonyl)phenyl]-N,N-dimethylpyrrolidin-3-amine], the IC50 was determined as 4.54 nM at EED, 2110 nM in test [1] and 2.81 µM in the test on Pfeiffer cells (setting [2]).

With `CN(C)[C@H]1CN(C2CCc3cccc(F)c32)C[C@@H]1c1ccc(C(=O)N2CC[C@H](O)C2)cc1` (mixture of isomers) [Example 40, rac-{4-[(3S,4R)-4-(dimethylamino)-1-(7-fluoro-2,3-dihydro-1H-inden-1-yl)pyrrolidin-3-yl]phenyl}[(3S)-3-hydroxypyrrolidin-1-yl]methanone], the IC50 at EED turned out to be 4.62 nM; in test [1], 1080 nM; in the test on Pfeiffer cells (setting [2]), 0.941 µM.

Turning to `CN(C)[C@H]1CN(C2CCc3cccc(F)c32)C[C@@H]1c1ccc(S(N)(=O)=O)cc1` (mixture of isomers) [Example 8, rac-4-[(3S,4R)-4-(dimethylamino)-1-(7-fluoro-2,3-dihydro-1H-inden-1-yl)pyrrolidin-3-yl]benzene-1-sulfonamide], the results for the IC50 (on EED; in test [1]; with Pfeiffer cells (setting [2])) were 10.7 nM, 637 nM and 1.32 µM, respectively.

Consider `CNC(=O)c1ccc([C@H]2CN(C3CCc4cccc(F)c43)C[C@@H]2N(C)C)cc1` (mixture of isomers) [Example 24, rac-4-[(3S,4R)-4-(dimethylamino)-1-(7-fluoro-2,3-dihydro-1H-inden-1-yl)pyrrolidin-3-yl]-N-methylbenzamide], for which the IC50 amounted to 20.5 nM on EED, 601 nM in test [1] and 2.92 µM in the test with Pfeiffer cells (setting [2]).

On to `CN(C)C(=O)c1ccc([C@H]2CN(C3CCc4cccc(Cl)c43)C[C@@H]2N(C)C)cc1` (mixture of isomers) [Example 25, rac-4-[(3S,4R)-1-(7-chloro-2,3-dihydro-1H-inden-1-yl)-4-(dimethylamino)pyrrolidin-3-yl]-N,N-dimethylbenzamide], for which the IC50 at EED was 18.2 nM; in test [1], 1060 nM; in the test on Pfeiffer cells (setting [2]), 2.93 µM.

`CN(C)C(=O)c1ccc([C@H]2CN(C3CCc4cccc(F)c43)C[C@@H]2N(C)C)cc1` (mixture of isomers) [Example 26, rac-4-[(3S,4R)-4-(dimethylamino)-1-(7-fluoro-2,3-dihydro-1H-inden-1-yl)pyrrolidin-3-yl]-N,N-dimethylbenzamide]: the IC50 at EED was 2.51 nM; in test [1], 1360 nM; in the test on Pfeiffer cells (setting [2]), 3.03 µM.

As to `Cc1cc([C@H]2CN(C3CCc4cccc(F)c43)C[C@@H]2N(C)C)ccc1C#N` (mixture of isomers) [Example 37, rac-4-[(3S,4R)-4-(dimethylamino)-1-(7-fluoro-2,3-dihydro-1H-inden-1-yl)pyrrolidin-3-yl]-2-methylbenzonitrile], the results for the IC50 (at EED; in test [1]; in the test on Pfeiffer cells (setting [2])) were 2.67 nM, 874 nM and 2.66 µM, respectively.

For `CC(=O)N1CCN(c2ccc([C@H]3CN(C4CCc5cccc(F)c54)C[C@@H]3N(C)C)cc2)CC1` (mixture of isomers) [Example 44, rac-1-(4-{4-[(3S,4R)-4-(dimethylamino)-1-(7-fluoro-2,3-dihydro-1H-inden-1-yl)pyrrolidin-3-yl]phenyl}piperazin-1-yl)ethan-1-one], the IC50 on EED turned out to be 0.652 nM; in test [1], 144 nM; with Pfeiffer cells (Pfeiffer, read-out: Cell Proliferation IC50 (uM)), 0.0836 µM.

For `CN(C)[C@@H]1CN(C2CCc3cccc(F)c32)C[C@H]1c1ccc(N2CCN(C(=O)CO)CC2)cc1` (mixture of isomers) [Example 52, rac-1-(4-{4-[(3R,4S)-4-(dimethylamino)-1-(7-fluoro-2,3-dihydro-1H-inden-1-yl)pyrrolidin-3-yl]phenyl}piperazin-1-yl)-2-hydroxyethan-1-one], the IC50 at EED was found to be 1 nM; in test [1], 75 nM; in the test on Pfeiffer cells (setting [2]), 0.0894 µM.

As for `CN(C)[C@@H]1CN(C2CCc3cccc(F)c32)C[C@H]1c1ccc(N2CCN(C(=O)C(N)=O)CC2)cc1` (mixture of isomers) [Example 54, rac-2-(4-{4-[(3R,4S)-4-(dimethylamino)-1-(7-fluoro-2,3-dihydro-1H-inden-1-yl)pyrrolidin-3-yl]phenyl}piperazin-1-yl)-2-oxoacetamide], the IC50 at EED is 1.06 nM; in test [1] it was 99.1 nM; with Pfeiffer cells (setting [2]) it was 0.114 µM.

As for `CN1CCN(c2ccc([C@H]3CN(C4CCc5cccc(F)c54)C[C@@H]3N(C)C)cc2)CC1=O` (mixture of isomers) [Example 56, rac-4-{4-[(3S,4R)-4-(dimethylamino)-1-(7-fluoro-2,3-dihydro-1H-inden-1-yl)pyrrolidin-3-yl]phenyl}-1-methylpiperazin-2-one], the IC50 at EED came out at 1.39 nM; in test [1], 556 nM; in the test on Pfeiffer cells (setting [2]), 0.145 µM.

Turning to `Cc1cc([C@H]2CN(C3CCc4cccc(F)c43)C[C@@H]2N(C)C)ccc1N1CCN(C)C(=O)C1` (mixture of isomers) [Example 58, rac-4-{4-[(3S,4R)-4-(dimethylamino)-1-(7-fluoro-2,3-dihydro-1H-inden-1-yl)pyrrolidin-3-yl]-2-methylphenyl}-1-methylpiperazin-2-one], the IC50 turned out to be 1.67 nM on EED, 376 nM in test [1] and 0.314 µM in the test with Pfeiffer cells (setting [2]).

`CN(C)C(=O)C(=O)N1CCN(c2ccc([C@@H]3CN(C4CCc5cccc(F)c54)C[C@H]3N(C)C)cc2)CC1` (mixture of isomers) [Example 59, rac-2-(4-{4-[(3R,4S)-4-(dimethylamino)-1-(7-fluoro-2,3-dihydro-1H-inden-1-yl)pyrrolidin-3-yl]phenyl}piperazin-1-yl)-N,N-dimethyl-2-oxoacetamide]: the results for the IC50 (at EED; in test [1]; with Pfeiffer cells (setting [2])) were 1.07 nM, 163 nM and 0.127 µM, respectively.

As to `CN1CCN(c2ccc([C@H]3CN(C4CCc5cccc(F)c54)C[C@@H]3N(C)C)cc2)CC1` (mixture of isomers) [Example 61, rac-(3R,4S)-1-(7-fluoro-2,3-dihydro-1H-inden-1-yl)-N,N-dimethyl-4-[4-(4-methylpiperazin-1-yl)phenyl]pyrrolidin-3-amine], the IC50 on EED amounted to 1.14 nM; in test [1], 804 nM; in the test on Pfeiffer cells (setting [2]), 0.204 µM.

In the case of `CCS(=O)(=O)N1CCN(c2ccc([C@H]3CN(C4CCc5cccc(F)c54)C[C@@H]3N(C)C)cc2C)CC1` (mixture of isomers) [Example 62, rac-(3R,4S)-4-{4-[4-(ethanesulfonyl)piperazin-1-yl]-3-methylphenyl}-1-(7-fluoro-2,3-dihydro-1H-inden-1-yl)-N,N-dimethylpyrrolidin-3-amine], the IC50 on EED stood at 1.35 nM; in test [1] it was 282 nM; in the test on Pfeiffer cells (setting [2]), 0.429 µM.

`CN(C)[C@H]1CN(C2CCc3cccc(F)c32)C[C@@H]1c1ccc(N2CCN(C3CC3)CC2)cc1` (mixture of isomers) [Example 64, rac-(3R,4S)-4-[4-(4-cyclopropylpiperazin-1-yl)phenyl]-1-(7-fluoro-2,3-dihydro-1H-inden-1-yl)-N,N-dimethylpyrrolidin-3-amine]: the IC50 at EED was determined as 0.835 nM; in test [1], 334 nM; in the test with Pfeiffer cells (setting [2]) it was 0.166 µM.

Take `CN(C)[C@@H]1CN(C2CCc3cccc(F)c32)C[C@H]1c1ccc(N2CCN(S(=O)(=O)c3cn(C)cn3)CC2)cc1` (mixture of isomers) [Example 73, rac-(3S,4R)-1-(7-fluoro-2,3-dihydro-1H-inden-1-yl)-N,N-dimethyl-4-{4-[4-(1-methyl-1H-imidazole-4-sulfonyl)piperazin-1-yl]phenyl}pyrrolidin-3-amine]: the results for the IC50 (at EED; in test [1]; in the test with Pfeiffer cells (setting [2])) were 0.825 nM, 113 nM and 0.0995 µM, respectively.

`CN(C)C(=O)c1cccc2c([C@H]3CN(C4CCc5cccc(F)c54)C[C@@H]3N(C)C)cn(C)c12` (mixture of isomers) [Example 101, rac-3-[(3S,4R)-4-(dimethylamino)-1-(7-fluoro-2,3-dihydro-1H-inden-1-yl)pyrrolidin-3-yl]-N,N,1-trimethyl-1H-indole-7-carboxamide]: the IC50 at EED is 1.74 nM; in test [1], 368 nM.

For the compound `CN1CCN(C(=O)c2cccc3c([C@H]4CN(C5CCc6cccc(F)c65)C[C@@H]4N(C)C)cn(C)c23)CC1=O` (mixture of isomers) [Example 125, rac-4-{3-[(3S,4R)-4-(dimethylamino)-1-(7-fluoro-2,3-dihydro-1H-inden-1-yl)pyrrolidin-3-yl]-1-methyl-1H-indole-7-carbonyl}-1-methylpiperazin-2-one], the IC50 at EED came out at 1.07 nM; in test [1] it was 203 nM; in the test with Pfeiffer cells (setting [2]) it was 0.268 µM.

Turning to `CN(C)[C@H]1CN(C2CCc3cccc(F)c32)C[C@@H]1c1cn(C)c2ccccc12` (stereo partly drawn) [Example 76, (3R,4S)-1-(7-fluoro-2,3-dihydro-1H-inden-1-yl)-N,N-dimethyl-4-(1-methyl-1H-indol-3-yl)pyrrolidin-3-amine], the IC50 worked out at 1340 nM in test [1] and 1.9 µM in the test with Pfeiffer cells (setting [2]).
